Our source for the melting point values is a melting point compilation (Tetko et al.).

As for `CCOC=C1C(=O)N(c2cccc(C(F)(F)F)c2)C(=O)c2ccccc21`, the melting point lay within 194 to 196 °C.
`NS(=O)(=O)c1cc(C(=O)O)co1` returned a melting point of 176 to 178 °C.
`CS(=O)(=O)c1ccc(N)c(C(=O)O)c1` displayed a melting point of 239 to 241 °C.
In turn, `COc1nc(N(C)C)sc1C=O` returned a melting point of 69 to 71 °C.
In the case of `CC(C)(C)OC(=O)N1CCC(OC(=O)c2ccc(N)cc2)CC1`, the melting point fell in the range of 147 to 149 °C.
Regarding `CC(=O)Nc1ccccc1OCc1ccc(C(=O)O)o1`, the melting point fell in the range of 179 to 181 °C.
In turn, `Cc1nn(CCO)c2ncc(Br)cc12` showed a melting point of 110 to 112 °C.
`O=C1CCNc2ccc(F)cc2N1` had a melting point of 147 to 149 °C.
As for `Nc1cccc(C#Cc2ccccc2)c1`, the melting point fell in the range of 47 to 49 °C.
As to `Cc1cc(-c2ncc[nH]2)c(=O)[nH]n1`, the melting point was 254 to 256 °C.
The molecule `[N-]=[N+]=NC(C(N)=O)c1ccc(F)cc1` (stereo unspecified) registered a melting point of 127 to 129 °C.
`NC(=O)c1ccn(-c2cccc(N)c2)n1` displayed a melting point of 177 to 179 °C.
The molecule `Cc1nn(CC(C)C)c(Cl)c1C(=O)O` registered a melting point of 128 to 130 °C.
In the case of `Cc1ccnc(Oc2ccc(N)cc2)n1` it was 119 to 121 °C; in that of `COC(=O)c1ccc2n[nH]c(=O)n2c1`, 225 to 227 °C; in that of `Cc1ccc(-c2nnc(Cl)c3ccccc23)cc1C`, 241 to 243 °C.
Then `Cc1ccc(C2(C)NC(=O)N(CC(=O)O)C2=O)cc1` (stereo unspecified), with 206 to 208 °C.
Molecule `Cc1cc(C(=O)O)c(C)n1-c1cccc(Cl)c1` displayed a melting point of 160 to 162 °C.
As to `Cc1ccc(CN(C)C(N)=O)cc1`, the melting point lay in the range of 146 to 148 °C.
`CS(=O)(=O)N1CCC(N=C=O)CC1`: the melting point fell in the range of 84 to 86 °C.
`O=C1CCSc2ccc(C(=O)O)cc2N1` displayed a melting point of 262 to 264 °C.
For the molecule `Cc1oc(-c2cnn(C)c2)nc1C(=O)O`, the melting point lay within 249 to 251 °C.
Then `CNc1ncc([N+](=O)[O-])cc1C#N`, with 181 to 183 °C.
In turn, `Oc1ccccc1OCc1ccc(F)cc1` displayed a melting point of 55 to 57 °C.
`O=C(O)c1cccc(N2NC(=O)C3CC=CCC3C2=O)c1` (stereo unspecified) registered a melting point of 185 to 187 °C.
Consider `O=C1CCOc2ccccc2N1`, for which the melting point is 109 to 111 °C.
Turning to `O=C(O)CS(=O)(=O)c1ccc(Cl)cc1`, the melting point lay in the range of 122 to 124 °C.
In the case of `O=Cc1cc(Cl)cc2c1OCC2` it was 85 to 87 °C; in that of `Cn1cnc([N+](=O)[O-])c1Oc1ccc(Br)cc1`, 129 to 131 °C; in that of `CC(C)(C)c1ccc(-c2csc(N)n2)cc1`, 127 to 129 °C.
With `Clc1ccc(Cl)c(OCC2CO2)c1` (stereo unspecified), the melting point fell in the range of 62 to 64 °C.
`CN(C)Cc1nnc(S)o1` yielded a melting point of 202 to 204 °C.
The molecule `Cc1cc(C(=O)O)c(C)n1Cc1ccccn1` yielded a melting point of 151 to 153 °C.
Regarding `CCN(CC)c1nc2sc(C(=O)O)cc2s1`, the melting point was 191 to 193 °C.
As for `Cc1ccccc1NC(=O)C(C)Cl` (stereo unspecified), the melting point fell in the range of 112 to 114 °C.
Molecule `O=Cc1ccc(-c2ccccc2F)o1` yielded a melting point of 66 to 68 °C.
As for `Cc1cc(S(C)(=O)=O)cc(C(=O)O)c1C`, the melting point lay in the range of 199 to 201 °C.
In the case of `Cn1c(=O)c2c(=O)cc(N)[nH]c2n(C)c1=O` it was 316 to 318 °C.
As to `Cc1ccc(Oc2ncccc2C#N)c(Br)c1`, the melting point fell in the range of 116 to 118 °C.
`Cc1ccc(OCC(=O)O)c(Br)c1` returned a melting point of 130 to 132 °C.
With `CC(C)(C)OC(=O)N1CCN(C(N)=O)CC1`, the melting point lay in the range of 175 to 177 °C.
Molecule `NNS(=O)(=O)Cc1ccccc1` came in with a melting point of 131 to 133 °C.
The molecule `O=C1c2ccc(S(=O)(=O)Cl)cc2CCC1Cl` (stereo unspecified) came in with a melting point of 124 to 126 °C.
Consider `O=C(O)C(Cc1ccccc1Br)Cc1ccccc1Br`, for which the melting point lay in the range of 145 to 147 °C.
In the case of `COc1ccc(S(=O)(=O)N2CCNCC2)cc1OC`, the melting point lay in the range of 145 to 147 °C.
For the molecule `COC(=O)c1ccc(S(C)(=O)=O)cc1`, the melting point was 116 to 118 °C.
Regarding `O=C(O)c1ncccc1C(F)(F)F`, the melting point lay in the range of 107 to 109 °C.
The molecule `Cc1sc2nc(S)n(C(C)C)c(=O)c2c1C` had a melting point of 270 to 272 °C.
In the case of `NC(=O)c1cnn(-c2ccccc2)c1N`, the melting point was 167 to 170 °C.
In turn, `COc1ccc(CC#N)c(Cl)c1OC` came in with a melting point of 55 to 57 °C.
Then `S=C(NCc1cccnc1)NCc1cccnc1`, with 157 to 159 °C.
Then `CC(C)c1sc(NC(=O)CCl)nc1-c1ccccc1`, with 136 to 138 °C; and `COCCS(=O)(=O)c1ccc(C(=O)O)cc1`, with 160 to 162 °C.
`NC(=O)CN1CCC(N)CC1` had a melting point of 74 to 76 °C.
Regarding `O=[N+]([O-])c1ccc(Cc2nnn[nH]2)cc1`, the melting point was 178 to 180 °C.
`Cc1cc(C)nc(-n2nccc2N)n1` came in with a melting point of 183 to 185 °C.
For the molecule `Cc1c(C(=O)O)c(=O)oc2cc(F)ccc12`, the melting point lay in the range of 169 to 171 °C.
On to `Nc1nc(S)nc2sccc12`, for which the melting point lay in the range of 275 to 277 °C.
As for `C=CCNC(=O)Nc1ccc(N)cc1`, the melting point was 157 to 159 °C.
In turn, `COc1cccc(Cn2c(N)cc(=O)[nH]c2=O)c1` returned a melting point of 292 to 294 °C.
`COc1ccc(S(N)(=O)=O)cc1Br` yielded a melting point of 139 to 141 °C.
In the case of `O=C(O)CCCn1cccn1` it was 74 to 76 °C; in that of `COc1cccc(-c2noc(CCl)n2)c1`, 38 to 40 °C.
`CC(=O)NC1(c2noc(CCl)n2)CCCC1` gave a melting point of 74 to 76 °C.
In the case of `O=C1CNC(=O)c2ccccc2N1` it was 324 to 326 °C; in that of `O=c1c2ccccc2nc(Cl)n1-c1ccccc1`, 127 to 129 °C.
In the case of `CC1(C)Cc2c(sc(N)c2C#N)C(C)(C)N1` it was 197 to 199 °C.
Take `CNc1c(F)cccc1C(=O)O`: the melting point was in the range of 134 to 136 °C.
Turning to `O=C(Cc1ccc(Br)cc1)Nc1cccc(C(=O)O)c1`, the melting point was in the range of 291 to 293 °C.
`O=C(O)c1cccc(Nc2ncccn2)c1` returned a melting point of 270 to 272 °C.
Molecule `CC1CCC(NC(=O)CCl)CC1` (stereo unspecified) had a melting point of 152 to 155 °C.
Consider `O=C(O)CC(Br)C(=O)c1ccc(Cl)cc1` (stereo unspecified), for which the melting point is 113 to 117 °C.
Then `NS(=O)(=O)c1cnc(Cl)s1`, with 128 to 130 °C.
In the case of `O=S(=O)(Cl)c1c(Cl)ccc2ccccc12` it was 65 to 67 °C; in that of `Cc1c(C(=O)O)oc2c(F)cc(F)cc12`, 339 to 341 °C; in that of `COc1cccc(-c2nn(-c3ccccc3)cc2C(=O)O)c1`, 156 to 158 °C.
Take `O=C(O)COc1ccc(C(=O)c2ccc(Cl)cc2)cc1`: the melting point fell in the range of 185 to 187 °C.
Molecule `CC(C(=O)O)n1cc(Cl)cn1` (stereo unspecified) registered a melting point of 56 to 59 °C.
In the case of `O=C(O)c1cc(Cl)c2c(c1)OCCO2`, the melting point was in the range of 251 to 253 °C.
In the case of `CC(CCOc1ccccc1)C(=O)O` (stereo unspecified) it was 76 to 78 °C.
In the case of `CCc1cc(O)ncc1Br` it was 109 to 111 °C; in that of `OC(c1c(Cl)cccc1Cl)C1CCOCC1` (stereo unspecified), 106 to 108 °C; in that of `COc1cccc(Oc2ccc(N)cc2)c1`, 62 to 64 °C.
`CC1(c2ccc(C(=O)O)cc2)NC(=O)NC1=O` (stereo unspecified): the melting point was in the range of 279 to 281 °C.
Regarding `Oc1ccc(-n2cnc3ccccc32)cc1`, the melting point lay in the range of 278 to 280 °C.
In the case of `Nc1ccc2[nH]c3c(c2c1)CCCC3` it was 174 to 176 °C; in that of `O=C(NC1CC1)c1ccc(Br)cc1F`, 111 to 113 °C; in that of `CC(Cl)C(=O)NCc1ccc(Cl)cc1` (stereo unspecified), 100 to 102 °C.
In turn, `CNC(=Nc1ccnn1C(C)C)c1ccco1` gave a melting point of 233 to 235 °C.
Then `Cc1ccc(Cl)cc1NC(=O)CC#N`, with 190 to 192 °C; and `O=C(O)c1nn(-c2ccc(F)cc2F)cc1O`, with 203 to 205 °C; and `Cc1cc(=O)c(C(=O)O)nn1-c1ccccc1Cl`, with 215 to 217 °C.
Consider `Cc1cc(C)c(C(N)=O)c(N2CCCC2)n1`, for which the melting point lay in the range of 174 to 176 °C.
In turn, `Nc1ccnn1CC1CCCCC1` showed a melting point of 59 to 61 °C.
Then `NC(=O)NC(=O)OCCCCl`, with 165 to 167 °C.
In the case of `Nc1ccc(N2CCNC(=O)C2)cc1` it was 167 to 169 °C; in that of `O=[N+]([O-])c1ccc2c(c1)CCCN2`, 155 to 157 °C; in that of `Oc1cccc(Oc2ccncn2)c1`, 102 to 104 °C.
As to `O=C(O)CC12CC3CC(C1)CC(C(F)(F)F)(C3)C2`, the melting point fell in the range of 121 to 123 °C.
With `Clc1cc(-c2ncc[nH]2)ccn1`, the melting point is 187 to 189 °C.
`Cc1cccc(N2CCN(CCN)CC2)c1C` had a melting point of 60 to 62 °C.
`Cc1nnc(S)n1CC(=O)N(C)C` displayed a melting point of 260 to 262 °C.
Then `COC(=O)c1cc(OC)c(OC(F)F)cc1N`, with 89 to 91 °C; and `O=CC(C=O)SCc1ccccc1`, with 128 to 130 °C; and `CC(C)CNC(=O)NC(=O)CCl`, with 105 to 107 °C.
The molecule `Cc1sc(-n2cccc2)c(C(=O)O)c1C` yielded a melting point of 156 to 158 °C.
Molecule `COC(=O)c1cc2c(C=O)ccc(OC)c2o1` came in with a melting point of 171 to 173 °C.
In the case of `OCCNc1ncnc2ccccc12` it was 172 to 174 °C; in that of `Cn1cc(C(=O)CBr)cn1`, 116 to 118 °C.
Consider `CCC(Oc1ccccc1F)C(=O)O` (stereo unspecified), for which the melting point lay in the range of 63 to 65 °C.
The molecule `Cc1noc2nc(-c3ccccc3C(F)(F)F)cc(C(=O)O)c12` displayed a melting point of 170 to 172 °C.
With `CC(C)NC(=O)C(=O)NN`, the melting point was in the range of 158 to 160 °C.
On to `O=C(O)c1n[nH]c2ccc([N+](=O)[O-])cc12`, for which the melting point is 253 to 255 °C.
`Nc1nc(-c2sccc2Br)cs1` had a melting point of 151 to 153 °C.
`CN1CCN(C(=O)c2cc(N)ccn2)CC1` had a melting point of 133 to 135 °C.
In the case of `O=C(O)C=C1CCCC1`, the melting point lay within 61 to 63 °C.
For the molecule `[N-]=[N+]=Nc1ccc(Cl)cc1C(F)(F)F`, the melting point fell in the range of 32 to 34 °C.
Regarding `Nc1cc(-c2cc3ccccc3o2)n[nH]1`, the melting point is 124 to 126 °C.
The molecule `Cc1cc(N)ncn1` registered a melting point of 186 to 188 °C.
In the case of `Cn1c(C(=O)O)ccc1-c1ccccc1` it was 143 to 145 °C; in that of `Cc1ccc(N2CCOC2=O)cc1N`, 124 to 126 °C.
